“Also recorded” adds a separate entry of the source.
How the values were obtained:
HepG2 cells = assay: Activity against HepG2 cells in nude mice; assay type: in vivo
tumor cell lines = assay type: cell-based
[1] = Phosphorylation to nucleotides in vivo
Colon 38 tumor cells = assay: In vivo treatment of Colon 38 tumor cells implanted sc in BDF1 mice; conditions: 25 mg/kg/dose twice daily for five days
From the text: Colon 38 tumor cells were implanted sc to BDF1 mice.

cytidine deaminase = cytidine deaminase (Homo sapiens, UniProt P32320); assay: Enzymatic studies of deamination; assay type: biochemical
Sequence of cytidine deaminase (P32320 whole entry, species assumed): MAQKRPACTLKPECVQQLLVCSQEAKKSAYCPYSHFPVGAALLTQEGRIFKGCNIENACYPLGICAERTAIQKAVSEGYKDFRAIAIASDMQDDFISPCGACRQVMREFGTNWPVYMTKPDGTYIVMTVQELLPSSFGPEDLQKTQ

Leukemia P388 cells = assay: In vivo treatment of leukemia P388 cells implanted ip in BDF1 mice; conditions: 25 × 2 × 5 mg/kg ip, twice a day on days 1 to 5
From the text: 10^6 Leukemia P388 cells were implanted ip to BDF1 mice obtained from Southern Research Institute, Alabama.

[2] = biological target: human deoxycytidine kinase (Homo sapiens, UniProt P27707); assay: In vitro enzymatic studies of phosphorylation; assay type: biochemical
Sequence of human deoxycytidine kinase (P27707 whole entry): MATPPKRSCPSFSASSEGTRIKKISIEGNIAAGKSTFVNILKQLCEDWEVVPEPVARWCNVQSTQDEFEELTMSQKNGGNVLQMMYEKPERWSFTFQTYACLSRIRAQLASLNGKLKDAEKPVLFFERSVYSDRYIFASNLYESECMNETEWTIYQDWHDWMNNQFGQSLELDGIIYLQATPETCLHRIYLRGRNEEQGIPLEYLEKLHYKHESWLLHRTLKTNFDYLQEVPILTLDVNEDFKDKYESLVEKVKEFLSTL

| Compound | activity against HepG2 cells in nude mice (HepG2 cells) | effectiveness compared with AraC (tumor cell lines; KB, DU-145 and PC-3 cell lines) | cytotoxicity in all of the tumor cell lines tested (tumor cell lines) | phosphorylation to mono-, di- and tri-phosphate nucleotide [1] | colon tumor cell growth (FIG. 2) (Colon 38 tumor cells) | deamination / substrate for deaminase (cytidine deaminase) | Cures/Total (survivors equal or greater than 45 day life span) (Leukemia P388 cells; 5 mg/kg) | ILS (Increased Life Span percent above control) (Leukemia P388 cells; 10^6 P388 cells ip on day 0) | phosphorylation by human deoxycytidine kinase [2] |
| --- | --- | --- | --- | --- | --- | --- | --- | --- | --- |
| Nc1ccn([C@@H]2O[C@H](CO)[C@@H](O)[C@@H]2O)c(=O)n1 [AraC, Cytosine arabinoside, reference compound] | inactive |  |  |  |  |  |  |  |  |
| Nc1ccn([C@@H]2CO[C@H](CO)O2)c(=O)n1 [(−)-OddC, (−)-(2S,4S)-1-(2-hydroxymethyl-1,3-dioxolan-4-yl)cytosine] | active | significantly more effective than AraC | more cytotoxic than AraC | can be phosphorylated | retarded | not a substrate for deaminase; also recorded: not deaminated | 1/6 | 103% | can be phosphorylated by this enzyme |
| O=c1ccn(C2COC(CO)O2)c(=O)[nH]1 (single isomer, unassigned; (-)) [(−)-OddU, reference compound] |  |  | not toxic |  |  |  |  |  |  |
